Measured values from the supplement of paper PMC13380429.

Columns and labels:
Conditions in all cases: 72 h
Caco-2 [1] = assay: cell viability relative to DMSO; higher = less toxic
Calu-3 [2] = assay: as above
HepG2 [3] = assay: as above
U2OS [4] = assay: as above
Vero E6 [5] = assay: as above
Caco-2 [6] = assay: relative viability EC50 (midpoint between 100% and the lowest measured viability); higher = less toxic
Calu-3 [7] = assay: as above
HepG2 [8] = assay: as above
U2OS [9] = assay: as above
Vero E6 [10] = assay: as above
Caco-2 [11] = assay: drug sensitivity score (DSS) for viability; higher = more toxic; extreme values may be limits of the assay
Calu-3 [12] = assay: as above
HepG2 [13] = assay: as above
U2OS [14] = assay: as above
Vero E6 [15] = assay: as above

In the case of N#Cc1cccc(-c2c[nH]c3ncnc(N4CCOCC4)c23)c1, the cell viability (Caco-2 [1]; 1 nM) is reported as 104%, the cell viability (Caco-2 [1]; 10 nM) is reported as 98.2% and the cell viability (Caco-2 [1]; 100 nM) is reported as 105%. The cell viability (Caco-2 [1]; 1000 nM) was 107%, the cell viability (Caco-2 [1]; 10000 nM) was 118% and the cell viability (Calu-3 [2]; 1 nM) was 99%. For the same molecule, the cell viability (Calu-3 [2]; 10 nM) was 104%, the cell viability (Calu-3 [2]; 100 nM) was 103% and the cell viability (Calu-3 [2]; 1000 nM) was 99.6%. For the same molecule, the cell viability (Calu-3 [2]; 10000 nM) was 115%, the cell viability (HepG2 [3]; 1 nM) was 89.8% and the cell viability (HepG2 [3]; 10 nM) was 99.8%. The cell viability (HepG2 [3]; 100 nM) was 102%, the cell viability (HepG2 [3]; 1000 nM) was 105% and the cell viability (HepG2 [3]; 10000 nM) was 106%. For the same molecule, the cell viability (U2OS [4]; 1 nM) was 106%, the cell viability (U2OS [4]; 10 nM) was 99.2% and the cell viability (U2OS [4]; 100 nM) was 102%. For the same molecule, the cell viability (U2OS [4]; 1000 nM) was 98.5%, the cell viability (U2OS [4]; 10000 nM) was 105% and the cell viability (Vero E6 [5]; 1 nM) was 98.1%. It also gave a cell viability (Vero E6 [5]; 10 nM) of 96%, a cell viability (Vero E6 [5]; 100 nM) of 98.9% and a cell viability (Vero E6 [5]; 1000 nM) of 97.7%. For the same molecule, the cell viability (Vero E6 [5]; 10000 nM) was 95.9%, the “relative viability EC50” value (Caco-2 [6]) was > 10 µM and the “relative viability EC50” value (Calu-3 [7]) was > 10 µM. For the same molecule, the “relative viability EC50” value (HepG2 [8]) was > 10 µM, the “relative viability EC50” value (U2OS [9]) was > 10 µM and the “relative viability EC50” value (Vero E6 [10]) was > 10 µM. For the same molecule, the drug sensitivity score (Caco-2 [11]) was 0, the drug sensitivity score (Calu-3 [12]) was 0 and the drug sensitivity score (HepG2 [13]) was 0. For the same molecule, the drug sensitivity score (U2OS [14]) was 0 and the drug sensitivity score (Vero E6 [15]) was 0.

O=C(NC1CCOCC1)c1ccc(-c2cc(-c3c[nH]nc3-c3ccccn3)ccn2)cc1 showed a cell viability (Caco-2 [1]; 1 nM) of 91%, a cell viability (Caco-2 [1]; 10 nM) of 97.2% and a cell viability (Caco-2 [1]; 100 nM) of 100%. It also gave a cell viability (Caco-2 [1]; 1000 nM) of 95.7%, a cell viability (Caco-2 [1]; 10000 nM) of 93.9% and a cell viability (Calu-3 [2]; 1 nM) of 101%. The cell viability (Calu-3 [2]; 10 nM) was 120%, the cell viability (Calu-3 [2]; 100 nM) was 103% and the cell viability (Calu-3 [2]; 1000 nM) was 99.6%. It also gave a cell viability (Calu-3 [2]; 10000 nM) of 108%, a cell viability (HepG2 [3]; 1 nM) of 96.2% and a cell viability (HepG2 [3]; 10 nM) of 99.9%. The cell viability (HepG2 [3]; 100 nM) was 94.8%, the cell viability (HepG2 [3]; 1000 nM) was 104% and the cell viability (HepG2 [3]; 10000 nM) was 93.8%. It also gave a cell viability (U2OS [4]; 1 nM) of 98.2%, a cell viability (U2OS [4]; 10 nM) of 98.4% and a cell viability (U2OS [4]; 100 nM) of 100%. It also gave a cell viability (U2OS [4]; 1000 nM) of 94.4%, a cell viability (U2OS [4]; 10000 nM) of 92.2% and a cell viability (Vero E6 [5]; 1 nM) of 93.4%. It also gave a cell viability (Vero E6 [5]; 10 nM) of 103%, a cell viability (Vero E6 [5]; 100 nM) of 98.8% and a cell viability (Vero E6 [5]; 1000 nM) of 107%. The cell viability (Vero E6 [5]; 10000 nM) was 102%, the “relative viability EC50” value (Caco-2 [6]) was > 10 µM and the “relative viability EC50” value (Calu-3 [7]) was > 10 µM. The “relative viability EC50” value (HepG2 [8]) was > 10 µM, the “relative viability EC50” value (U2OS [9]) was > 10 µM and the “relative viability EC50” value (Vero E6 [10]) was > 10 µM. It also gave a drug sensitivity score (Caco-2 [11]) of 0, a drug sensitivity score (Calu-3 [12]) of 0 and a drug sensitivity score (HepG2 [13]) of 0. It also gave a drug sensitivity score (U2OS [14]) of 0 and a drug sensitivity score (Vero E6 [15]) of 0.

For O=C(NCc1ccncc1)C12CC3CC(C1)CC(c1ccc(Cl)cc1)(C3)C2, the cell viability (Caco-2 [1]; 1 nM) was 99.6%, the cell viability (Caco-2 [1]; 10 nM) was 94.9% and the cell viability (Caco-2 [1]; 100 nM) was 98.6%. For the same molecule, the cell viability (Caco-2 [1]; 1000 nM) was 96%, the cell viability (Caco-2 [1]; 10000 nM) was 92.9% and the cell viability (Calu-3 [2]; 1 nM) was 104%. For the same molecule, the cell viability (Calu-3 [2]; 10 nM) was 100%, the cell viability (Calu-3 [2]; 100 nM) was 89% and the cell viability (Calu-3 [2]; 1000 nM) was 92.2%. For the same molecule, the cell viability (Calu-3 [2]; 10000 nM) was 89.3%, the cell viability (HepG2 [3]; 1 nM) was 96.7% and the cell viability (HepG2 [3]; 10 nM) was 107%. For the same molecule, the cell viability (HepG2 [3]; 100 nM) was 105%, the cell viability (HepG2 [3]; 1000 nM) was 98% and the cell viability (HepG2 [3]; 10000 nM) was 93.7%. It also gave a cell viability (U2OS [4]; 1 nM) of 97.4%, a cell viability (U2OS [4]; 10 nM) of 99.2% and a cell viability (U2OS [4]; 100 nM) of 101%. The cell viability (U2OS [4]; 1000 nM) was 97.8%, the cell viability (U2OS [4]; 10000 nM) was 93.5% and the cell viability (Vero E6 [5]; 1 nM) was 102%. It also gave a cell viability (Vero E6 [5]; 10 nM) of 104%, a cell viability (Vero E6 [5]; 100 nM) of 104% and a cell viability (Vero E6 [5]; 1000 nM) of 105%. For the same molecule, the cell viability (Vero E6 [5]; 10000 nM) was 89.3%, the “relative viability EC50” value (Caco-2 [6]) was > 10 µM and the “relative viability EC50” value (Calu-3 [7]) was > 10 µM. The “relative viability EC50” value (HepG2 [8]) was > 10 µM, the “relative viability EC50” value (U2OS [9]) was > 10 µM and the “relative viability EC50” value (Vero E6 [10]) was > 10 µM. The drug sensitivity score (Caco-2 [11]) was 0, the drug sensitivity score (Calu-3 [12]) was 0.5 and the drug sensitivity score (HepG2 [13]) was 0. For the same molecule, the drug sensitivity score (U2OS [14]) was 0 and the drug sensitivity score (Vero E6 [15]) was 0.
